Experimental findings from ChEMBL document CHEMBL1201862, “PubChem BioAssay data set” (2004) are described below.

Structures are written as SMILES.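 A five-concentration, 48-hour dose response in 96-well plates underlies each endpoint, interpolated linearly between surrounding concentrations. GI50 marks 50% less growth.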 Active and inactive are the calls of the source. Rule as the data show it: active = GI50 up to about 1.1 µM and inactive = higher.

Holding throughout (experiment): NCI anticancer screen, dose series, 48 h
Assay [1] has as its system Malme-3M.
In assay [2] the test system is HOP-92.
The test system of assay [3] is MCF7.
The test system of assay [4] is A498.
In assay [5] the test system is SK-MEL-2.
Assay [6] relates to DU-145.
Assay [7] relates to OVCAR-3.
Assay [8] relates to KM12.
In assay [9] the test system is Hs-578T.
The test system of assay [10] is HT-29.
Assay [11] relates to HCC 2998.
The subject of assay [12] is UACC-257.
Assay [13] has as its system IGROV-1.
In assay [14] the test system is 786-0.
The subject of assay [15] is MOLT-4.
Assay [16] relates to NCI-H522.
Assay [17] concerns A549.
The test system of assay [18] is OVCAR-5.
In assay [19] the test system is RPMI-8226.
Assay [20] deals with LOX IMVI.

On to `S=C(N/N=C(/c1ccccc1)c1ccccn1)N1CCCCCC1`, for which the GI50 in assay [1] was < 0.0295 µM (active); in [2] it was 0.55 µM (active); in [3] it was 0.0569 µM (active); in assay [4] it was 0.269 µM (active); in assay [5], 0.489 µM (active); in [6], 0.369 µM (active). Besides, the GI50 in [7] is 0.01 µM (active); in assay [8], < 0.0306 µM (active); in assay [9], 0.3 µM (active); in assay [10], < 0.0141 µM (active); in [11] it was 0.176 µM (active); in assay [12], < 0.015 µM (active). Further, the GI50 is < 0.0198 µM (active) in [13]; < 0.0265 µM (active) in assay [14]; < 0.0134 µM (active) in assay [15]; 0.0731 µM (active) in assay [16]; < 0.0371 µM (active) in [17]; 0.0764 µM (active) in [18].

In the case of `CC(=O)OCC1OC(O[C@@H]2C[C@H]3C(C)(C)[C@@H](OC(C)=O)CC[C@]3(C)[C@H]3CC[C@]45C[C@]4(CC[C@H]5[C@@H](C)C[C@@H](O)[C@H](O)C(C)(C)F)[C@@]32C)C(O)C(O)C1O` (stereo partly specified), the GI50 in assay [1] is 1.71 µM (inactive); in assay [2] it was 1.93 µM (inactive); in assay [19] it was 1.79 µM (inactive); in assay [3], 12.6 µM (inactive); in [4], 18.2 µM (inactive); in assay [6] it was > 100 µM (inactive). For the same molecule, the GI50 in [7] was 30.1 µM (inactive); in assay [8], 16.2 µM (inactive); in assay [9], 1.84 µM (inactive); in assay [10] it was 1.64 µM (inactive); in [11], 25.9 µM (inactive); in assay [12] it was 7.57 µM (inactive). The GI50 in assay [13] was 2.06 µM (inactive); in assay [14], 1.69 µM (inactive); in assay [15], 1.92 µM (inactive); in assay [16] it was 1.68 µM (inactive); in [17], 1.62 µM (inactive); in assay [18], 1.47 µM (inactive). Also, in assay [20], the GI50 is 1.77 µM (inactive).

On to `CSC(=S)N/N=C(\C)c1cccc(C)n1`, for which the GI50 in assay [1] was 0.809 µM (active); in [2], 1.1 µM (active); in assay [3], 0.128 µM (active); in assay [4], 2.21 µM (inactive); in [5], 3.48 µM (inactive); in assay [6], 0.845 µM (active). Further, the GI50 in assay [7] is 0.0568 µM (active); in assay [8], 2.26 µM (inactive); in assay [9] it was 6.14 µM (inactive); in assay [10], 0.133 µM (active); in assay [11], 3.17 µM (inactive); in assay [12], 0.92 µM (active). For the same molecule, the GI50 in assay [13] was 1.61 µM (inactive); in assay [14] it was 0.361 µM (active); in assay [15], 0.123 µM (active); in assay [16], 0.0815 µM (active); in [17] it was 0.762 µM (active); in [18], 5.77 µM (inactive). Moreover, the GI50 in [20] is 1.13 µM (inactive).

Consider `C1=Cc2cccc3occ(c23)C=C1`, for which the GI50 in [1] is > 100 µM (inactive); in assay [2], 91.8 µM (inactive); in [3], 31.8 µM (inactive); in [4], > 100 µM (inactive); in [5], > 100 µM (inactive); in assay [6], > 100 µM (inactive). The GI50 is 31.2 µM (inactive) in [7]; 43 µM (inactive) in [8]; 22.1 µM (inactive) in assay [9]; 35.1 µM (inactive) in assay [10]; 29 µM (inactive) in [11]; > 100 µM (inactive) in [12]. For the same molecule, the GI50 in assay [13] is 54.2 µM (inactive); in assay [14], 58.3 µM (inactive); in assay [15] it was 25.6 µM (inactive); in [16] it was 33 µM (inactive); in assay [17], > 100 µM (inactive); in assay [18], > 100 µM (inactive). Moreover, the GI50 in assay [20] was 17.9 µM (inactive).

For the molecule `Nc1cccc(C#Cc2cccc(C#Cc3cccc(N)n3)n2)n1`, the GI50 in assay [2] was > 100 µM (inactive); in [19], 91 µM (inactive); in assay [3], > 100 µM (inactive); in assay [4] it was > 100 µM (inactive); in [5] it was > 100 µM (inactive); in [6] it was > 100 µM (inactive). For the same molecule, the GI50 in assay [7] is > 100 µM (inactive); in [8], > 100 µM (inactive); in assay [9] it was > 100 µM (inactive); in assay [11], > 100 µM (inactive); in assay [12], > 100 µM (inactive); in assay [13], 69.5 µM (inactive). Moreover, the GI50 in assay [14] is 55.6 µM (inactive); in [15], 32.8 µM (inactive); in [16], > 100 µM (inactive); in assay [18] it was > 100 µM (inactive); in assay [20] it was > 100 µM (inactive).

For the molecule `Nc1ccc(S(=O)(=O)c2ccc(NC(=O)c3cccnc3)cc2)cc1`, the GI50 is > 100 µM (inactive) in assay [1]; > 100 µM (inactive) in assay [2]; 36.6 µM (inactive) in [19]; > 100 µM (inactive) in assay [3]; > 100 µM (inactive) in assay [4]; > 100 µM (inactive) in assay [6]. Moreover, the GI50 is > 100 µM (inactive) in [7]; > 100 µM (inactive) in assay [8]; 80.9 µM (inactive) in assay [9]; > 100 µM (inactive) in assay [10]; > 100 µM (inactive) in assay [11]; 53 µM (inactive) in assay [12]. Also, the GI50 in assay [13] was > 100 µM (inactive); in assay [14], > 100 µM (inactive); in assay [15], 57.5 µM (inactive); in [16] it was 53.2 µM (inactive); in [17], > 100 µM (inactive); in [18] it was > 100 µM (inactive). In addition, the GI50 in assay [20] was > 100 µM (inactive).

On to `N#Cc1cnn2ccn(C3OC(COC(=O)c4ccccc4)C(OC(=O)c4ccccc4)C3OC(=O)c3ccccc3)c12` (stereo unspecified), for which the GI50 in assay [1] was > 21.5 µM (inactive); in assay [2], > 31.6 µM (inactive); in assay [19], > 21.5 µM (inactive); in assay [3], > 46.5 µM (inactive); in assay [4] it was 20.5 µM (inactive); in assay [6], > 21.5 µM (inactive). Besides, the GI50 in assay [7] was > 21.5 µM (inactive); in [8], 17.3 µM (inactive); in assay [9], 13.2 µM (inactive); in assay [10], > 21.5 µM (inactive); in assay [11] it was > 21.5 µM (inactive); in assay [12], > 21.5 µM (inactive). Moreover, the GI50 in [13], in assay [14], in assay [15], in [16], in assay [17] and in assay [18] was > 21.5 µM (inactive) in each case. For the same molecule, the GI50 in assay [20] was > 31.6 µM (inactive).

`CCOc1c(OC)cc(CNNc2nccs2)cc1OC`: the GI50 in assay [1] was 82.2 µM (inactive); in assay [2] it was 67.6 µM (inactive); in assay [19] it was 7.03 µM (inactive); in [3] it was > 100 µM (inactive); in assay [4] it was > 100 µM (inactive); in assay [6], 15 µM (inactive). The GI50 in assay [7] is > 100 µM (inactive); in assay [8], > 100 µM (inactive); in [9], > 100 µM (inactive); in assay [10], > 100 µM (inactive); in [11] it was > 100 µM (inactive); in [12] it was 20.1 µM (inactive). Also, the GI50 in assay [13] is > 100 µM (inactive); in assay [14] it was > 100 µM (inactive); in [15] it was 28.6 µM (inactive); in [16], 52.6 µM (inactive); in assay [17], 60 µM (inactive); in assay [18] it was 4.57 µM (inactive). Besides, the GI50 in [20] is 47.2 µM (inactive).

For the molecule `Nc1ccc(-c2ncc3cc(-c4cccc(-c5cc6cnc(-c7ccc(N)cc7)nc6c6ccccc56)c4)c4ccccc4c3n2)cc1`, the GI50 in assay [2], in assay [19], in assay [3], in [4], in assay [5] and in assay [6] was > 100 µM (inactive) each time. Besides, the GI50 in assay [7], in assay [8], in assay [9], in [10], in [11] and in assay [12] was > 100 µM (inactive) throughout. The GI50 in [13], in assay [14], in assay [15], in [16], in [17] and in assay [18] was > 100 µM (inactive) each time. For the same molecule, the GI50 in assay [20] was > 100 µM (inactive).

With `C=C(C)CCC1CC=[N+]([O-])OC1C(C)(C)C` (stereo unspecified), the GI50 is > 100 µM (inactive) in assay [2]; 41.3 µM (inactive) in assay [19]; 15.5 µM (inactive) in [3]; > 100 µM (inactive) in assay [4]; 37.4 µM (inactive) in assay [6]; 66.1 µM (inactive) in [7]. In addition, the GI50 was 28.2 µM (inactive) in assay [8]; 36.6 µM (inactive) in [9]; 44.5 µM (inactive) in [10]; > 100 µM (inactive) in assay [11]; 58.6 µM (inactive) in assay [12]; 34.6 µM (inactive) in [13]. Also, the GI50 is 96.4 µM (inactive) in [14]; 39.2 µM (inactive) in [15]; 24.2 µM (inactive) in assay [16]; 20.9 µM (inactive) in [17]; > 100 µM (inactive) in [18]; 18.5 µM (inactive) in [20].
